From patent US10611778B2, “Fused bicyclic inhibitors of menin-MLL interaction” (Janssen Pharmaceutica NV, priority 2016, dated 2020)

Legend:
[1] = target: T1, Menin/MLL (terbium chelate-labeled menin, FITC-MBM1 peptide) (Homo sapiens, UniProt O00255, T541A); experiment: Menin/MLL homogenous time-resolved fluorescence (HTRF) assay; format: binding; settings: averaged values over all measurements; read-out: Menin HTRF assay (IC50)
T1 construct: Menin (a.a. 1-610-6×his tag) was labeled with terbium cryptate as follows
T1 sequence (O00255 with tags, fused parts or gaps T541A): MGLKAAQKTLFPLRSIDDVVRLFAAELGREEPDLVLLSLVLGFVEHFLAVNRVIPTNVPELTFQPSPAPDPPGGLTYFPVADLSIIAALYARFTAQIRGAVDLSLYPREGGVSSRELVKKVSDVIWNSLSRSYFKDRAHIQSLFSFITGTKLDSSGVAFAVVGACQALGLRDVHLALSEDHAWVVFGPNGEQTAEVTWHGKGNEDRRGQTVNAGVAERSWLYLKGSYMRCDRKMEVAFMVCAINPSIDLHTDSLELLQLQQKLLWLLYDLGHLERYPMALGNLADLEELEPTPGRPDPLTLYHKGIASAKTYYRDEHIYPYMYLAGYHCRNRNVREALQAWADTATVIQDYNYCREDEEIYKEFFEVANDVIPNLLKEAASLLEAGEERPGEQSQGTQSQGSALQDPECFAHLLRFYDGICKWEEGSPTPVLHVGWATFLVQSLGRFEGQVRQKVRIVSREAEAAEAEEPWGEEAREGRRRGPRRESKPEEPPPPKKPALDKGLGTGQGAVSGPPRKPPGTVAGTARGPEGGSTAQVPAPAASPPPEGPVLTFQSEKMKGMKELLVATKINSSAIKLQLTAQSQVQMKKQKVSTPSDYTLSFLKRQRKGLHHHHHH
Outline: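 Compound preincubated 5 min with terbium-cryptate-labeled menin (aa 1-610, His-tagged; 100 pM final), then 75 nM FITC-MBM1 peptide added, 15 min at ambient temperature; 0.5% DMSO, Tris pH 7.5 buffer. HTRF ratio 520/490 nm; % inhibition vs saturating competitor, IC50 from 11-point three-fold titration from 31 μM.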

[2] = target: T2, Menin/MLL (menin, FITC-MBM1 peptide) (Homo sapiens, UniProt O00255, T541A); experiment: Menin/MLL fluorescence polarization (FP) assay; format: binding; settings: averaged values over all measurements; read-out: Menin FP assay (IC50)
T2 construct: 6xHis (C)
T2 sequence (O00255 with tags, fused parts or gaps T541A): T1 sequence (O00255 with tags, fused parts or gaps T541A)
Experimental: Pharmacological Part 1) Menin/MLL Fluorescence Polarization Assay
To a non-surface binding, black 384-well microtiter plate was added 50 nL 160× test compound in DMSO and 4 μL 2× menin in assay buffer (40 mM Tris-HCl, pH 7.5, 50 mM NaCl, 1 mM DTT and 0.001% Tween 20). After incubation of test compound and menin for 10 min at ambient temperature, 4 μL 2×FITC-MBM1 peptide (FITC-β-alanine-SARWRFPARPGT-NH2) in assay buffer was added, the microtiter plate centrifuged at 1000 rpm for 1 min and the assay mixtures incubated for 15 min at ambient temperature. The relative amount of menin: FITC-MBM1 complex present in an assay mixture is determined by measuring the fluorescence polarization (FP) of the FITC label with a BMG Pherastar plate reader (ex. 485 nm/em. 520 nm) at ambient temperature. The final concentrations of reagents in the binding assay are 100 nM menin, 5 nM FITC-MBM1 peptide and 0.625% DMSO in assay buffer. Dose-response titrations of test compounds are conducted using an 11 point, three-fold serial dilution scheme, starting at 31 μM.
Compound potencies were determined by first calculating % inhibition at each compound concentration according to equation 1: % inhibition=((HC−LC)−(FP^compound−LC))/(HC−LC))*100 (Eqn 1)
Where LC and HC are the FP values of the assay in the presence or absence of a saturating concentration of a compound that competes with FITC-MBM1 for binding to menin, and FP^compound is the measured FP value in the presence of the test compound. HC and LC FP values represent an average of at least 16 replicates per plate.
Where Bottom and Top are the lower and upper asymptotes of the dose-response curve, respectively, IC50 is the concentration of compound that yields 50% inhibition of signal and h is the Hill coefficient.

MOLM14 = experiment: Proliferation assay (spheroid assay) MOLM14; format: cell-based, human; settings: Homo sapiens, MOLM-14, MOLM14; averaged values over all measurements; read-out: Spheroid assay MOLM14 (IC50)
Experimental: (§1) The anti-proliferative effect of menin/MLL protein/protein interaction inhibitor test compounds was assessed in human leukemia cell lines. The cell lines MV-4-11 and MOLM14 harbor MLL translocations and express the MLL fusion proteins MLL-AF4 and MLL-AF9, respectively, as well as the wildtype protein from the second allele. […] K562 and KG1 were used as a control cell lines containing two MLL wildtype alleles in order to exclude compounds that display general cytotoxic effects.
(§2) MV-4-11 and MOLM14 were cultured in RPMI-1640 (Sigma Aldrich) supplemented with 10% fetal bovine serum (HyClone), 2 mM L-glutamine (Sigma Aldrich) and 50 μg/ml gentamycin (Gibco). K562 were propagated in RPMI-1640 (Sigma Aldrich) supplemented with 20% fetal bovine serum (HyClone), 2 mM L-glutamine (Sigma Aldrich) and 50 μg/ml gentamycin (Gibco). KG1 were cultured in Iscove's MDM (Gibco) supplemented with 20% fetal bovine serum (HyClone), 2 mM L-glutamine (Sigma Aldrich) and 50 μg/ml gentamycin (Gibco).
(§3) In order to assess the anti-proliferative effects, 1,500 MV-4-11, 300 MOLM14, 750 K562 or 1,300 KG1 cells were seeded in 200 μl media per well in 96-well round bottom, ultra-low attachment plates (Costar, catalogue number 7007). Cell seeding numbers were chosen based on growth curves to ensure linear growth throughout the experiment. Test compounds were added at different concentrations and the DMSO content was normalized to 0.3%. Cells were incubated for 8 d at 37° C. and 5% CO2. Spheroid like growth was monitored in real-time by live-cell imaging (IncuCyteZOOM, Essenbio, 4× objective) acquiring one image every four hours for 8 d. Confluence (%) as a measure of spheroid size was determined using an integrated analysis tool.
(§4) In order to determine the cumulative effect of the test compounds over time, the area under the curve (AUC) in a plot of confluence against time was calculated. Confluence at the beginning of the experiment (t=0) was used as baseline for the AUC calculation.
(§5) Absolute IC50 values were calculated according to the following procedure: % Control=(AUC sample/AUC control)*100
(§6) AUC control=mean AUC of control values (cells without compound/DMSO as vehicle control)
(§7) A non-linear curve fit was applied using the least squares (ordinary) fit method to the plot of % control versus compound concentration. Based on this, the absolute IC50 value (half maximal inhibitory concentration of the test compound causing an anti-proliferative effect of 50% relative to the vehicle control) was calculated.

MV-4-11 = experiment: Proliferation assay (spheroid assay) MV-4-11; format: cell-based, human; settings: Homo sapiens, MV4-11, MV-4-11; averaged values over all measurements; read-out: Spheroid assay MV-4-11 (IC50)
Outline: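 Cells were grown as spheroids in ultra-low attachment round-bottom wells with compound (0.3% DMSO) for 8 d at 37 °C, imaged every 4 h, with confluence as spheroid size. AUC of confluence versus time (t=0 baseline) was expressed as % of DMSO control, and absolute IC50 came from a least-squares nonlinear fit.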

KG1 = experiment: Proliferation assay (spheroid assay) KG1 control cell line; format: cell-based; settings: Homo sapiens, KG-1, averaged values over all measurements
Experimental: as §1, §2, §3, §4, §5, §6, §7

SMILES | IC50 [1] | IC50 [2] | IC50 (MOLM14) | IC50 (MV-4-11) | IC50 (KG1)
FC(F)(F)Cc1cc2c(N3CC[C@H]4[C@H](CCN4Cc4ccccc4)C3)ncnc2s1 (single isomer, unassigned) [Compound 4] | 69 nM | 230 nM | 12800 nM | 8300 nM | –
Cn1cc(CN2CC[C@H]3CN(c4ncnc5sc(CC(F)(F)F)cc45)CC[C@H]32)cn1 (single isomer, unassigned) [Compound 9] | 106 nM | 98 nM | 10300 nM | 3500 nM | –
FC(F)(F)Cc1cc2c(N3CC[C@@H]4[C@@H](CCN4Cc4ccc(Cl)nc4)C3)ncnc2s1 (single isomer, unassigned) [Compound 10] | 118 nM | 250 nM | 2000 nM | 4400 nM | –
FC(F)(F)Cc1cc2c(N3CC[C@H]4[C@H](CCN4Cc4ccc(Cl)nc4)C3)ncnc2s1 (single isomer, unassigned) [Compound 11] | 680 nM | 590 nM | > 15000 nM | > 15000 nM | –
Cc1nc(CN2CC[C@H]3CN(c4ncnc5sc(CC(F)(F)F)cc45)CC[C@H]32)cs1 (single isomer, unassigned) [Compound 12] | 860 nM | 430 nM | 9200 nM | 2100 nM | –
CC(C)(CO)CN1CC[C@@H]2CN(c3ncnc4sc(CC(F)(F)F)cc34)C[C@@H]2C1 (single isomer, unassigned) [Compound 58] | 63 nM | – | – | 990 nM | > 15000 nM
FC(F)(F)Cc1cc2c(N3C[C@H]4CCN(CC5CCCOC5)C[C@H]4C3)ncnc2s1 (single isomer, unassigned) [Compound 99] | 33 nM | – | – | 240 nM | > 15000 nM
FC(F)(F)Cc1cc2c(N3C[C@H]4CCN(CC5CCCCO5)C[C@H]4C3)ncnc2s1 (single isomer, unassigned) [Compound 100] | 57 nM | – | – | 930 nM | > 15000 nM
FC(F)(F)Cc1cc2c(N3C[C@H]4CCN(CC5CCOC5)C[C@H]4C3)ncnc2s1 (single isomer, unassigned) [Compound 101] | 28 nM | – | – | 410 nM | > 15000 nM
Cn1cc(CN2CC3CN(c4ncnc5sc(CC(F)(F)F)cc45)CC3C2)cn1 (stereo not shown) [Compound 18] | 1130 nM | 520 nM | > 15000 nM | > 15000 nM | –
OCCn1cccc1CN1CCC2CN(c3ncnc4sc(CC(F)(F)F)cc34)CCC21 (stereo not shown) [Compound 23] | 366 nM | 220 nM | 4300 nM | 1700 nM | –

Now from value to compound, other results behind:

IC50 [1] | IC50 [2] | IC50 (MOLM14) | IC50 (MV-4-11) | SMILES | IC50 (KG1)
41 nM | – | 1300 nM | 480 nM | Fc1ccc(CN2CC[C@@H]3CN(c4ncnc5sc(CC(F)(F)F)cc45)C[C@@H]3C2)cn1 (single isomer, unassigned) [Compound 37] | > 15000 nM
165 nM | – | – | 670 nM | Cc1cncc(CN2CC[C@@H]3CN(c4ncnc5sc(CC(F)(F)F)cc45)C[C@@H]3C2)c1 (single isomer, unassigned) [Compound 39] | 2500 nM
25 nM | – | 1600 nM | 260 nM | Cc1ccc(CN2CC[C@@H]3CN(c4ncnc5sc(CC(F)(F)F)cc45)C[C@@H]3C2)cn1 (single isomer, unassigned) [Compound 40] | 8100 nM
74 nM | – | 1200 nM | 840 nM | FC(F)(F)Cc1cc2c(N3C[C@H]4CCN(Cc5cccnc5Cl)C[C@H]4C3)ncnc2s1 (single isomer, unassigned) [Compound 41] | 4500 nM
21 nM | – | 1600 nM | 470 nM | FC(F)(F)Cc1cc2c(N3C[C@H]4CCN(Cc5ccc(Cl)nc5)C[C@H]4C3)ncnc2s1 (single isomer, unassigned) [Compound 42] | > 15000 nM
87 nM | – | – | 2100 nM | COc1ncccc1CN1CC[C@@H]2CN(c3ncnc4sc(CC(F)(F)F)cc34)C[C@@H]2C1 (single isomer, unassigned) [Compound 44] | > 15000 nM
16 nM | – | 1800 nM | 280 nM | COc1ccc(CN2CC[C@@H]3CN(c4ncnc5sc(CC(F)(F)F)cc45)C[C@@H]3C2)cn1 (single isomer, unassigned) [Compound 45] | > 15000 nM
67 nM | – | 2100 nM | 590 nM | CCCN1CC[C@@H]2CN(c3ncnc4sc(CC(F)(F)F)cc34)C[C@@H]2C1 (single isomer, unassigned) [Compound 57] | > 15000 nM
95 nM | – | 220 nM | 660 nM | Cc1ncccc1CN1CC[C@@H]2CN(c3ncnc4sc(CC(F)(F)F)cc34)C[C@@H]2C1 (single isomer, unassigned) [Compound 60] | 1800 nM
61 nM | – | 800 nM | 650 nM | COc1cc(CN2CC[C@@H]3CN(c4ncnc5sc(CC(F)(F)F)cc45)C[C@@H]3C2)ccn1 (single isomer, unassigned) [Compound 63] | 9500 nM
70 nM | 88 nM | 6700 nM | 840 nM | Cn1cc(CN2CCC3CN(c4ncnc5sc(CC(F)(F)F)cc45)CC3C2)cn1 (stereo not shown) [Compound 71] | –
